Key:
Type in all cases: functional
[1] = DPPH radical scavenging activity at 1.0 mM by ESR
[2] = Galvinoxyl radical scavenging activity by ESR; set-up: concentration or dose not given beside the values
[3] = Hydroxyl radical scavenging activity at 0.6 mM by ESR
[4] = Hydroxyl radical scavenging activity assessed as Trolox equivalent antioxidant capacity
[5] = Hydroxyl radical scavenging activity at 1.0 mM by ESR
[6] = DPPH radical scavenging activity at 2.0 mM by ESR

Row | SMILES | Activity [1] [%] | Activity [2] [%] | Activity [3] [%] | Ratio [4] | Activity [5] [%] | Activity [6] [%]
1 | CC1(C)C=CC(=O)c2c(O)c3c(c(O)c21)CC=CC3 | 4 | 0 | 47.5 | 5.86 | 68.2 | 
2 | CC1(C)C=CC(=O)c2c(O)ccc(O)c21 | 4 | 0 | 47.5 | 3.76 | 50 | 
3 | CC1C=CC(CO)c2c(O)c3c(c(O)c21)C(C)(C)C=CC3=O (stereo unspecified) | 4 | 0 | 47.5 | 6.41 | 72 | 
4 | CC1C=CC(CO)c2c(O)c3c(c(O)c21)C(=O)C=CC3(C)C (stereo unspecified) | 4 | 0 | 47.5 | 5.1 | 71.3 | 93
5 | COc1ccc(O)c2c1C(C)(C)C=CC2=O | 4 | 0 | 47.5 | 1.56 | 47.5 | 
6 | COc1ccc(O)c2c1C(=O)C=CC2(C)C | 4 | 0 | 47.5 | 3.42 | 48.2 | 
